Laboratory results as given in publication PMC5791972 (PLoS ONE, 2018).
Values joined by “and” are separate entries in the source; they are usually repeats but may differ in a detail not shown here. Identical values can stand only once. Blank lines part the entries; values can stand above or below the compound they belong to.

Experiments:
M5 (h) = biological target: T1, M5 (h) (Homo sapiens, UniProt P08912); format: binding
T1 construct: host or cells: CHO cells
T1 sequence (P08912 1-532): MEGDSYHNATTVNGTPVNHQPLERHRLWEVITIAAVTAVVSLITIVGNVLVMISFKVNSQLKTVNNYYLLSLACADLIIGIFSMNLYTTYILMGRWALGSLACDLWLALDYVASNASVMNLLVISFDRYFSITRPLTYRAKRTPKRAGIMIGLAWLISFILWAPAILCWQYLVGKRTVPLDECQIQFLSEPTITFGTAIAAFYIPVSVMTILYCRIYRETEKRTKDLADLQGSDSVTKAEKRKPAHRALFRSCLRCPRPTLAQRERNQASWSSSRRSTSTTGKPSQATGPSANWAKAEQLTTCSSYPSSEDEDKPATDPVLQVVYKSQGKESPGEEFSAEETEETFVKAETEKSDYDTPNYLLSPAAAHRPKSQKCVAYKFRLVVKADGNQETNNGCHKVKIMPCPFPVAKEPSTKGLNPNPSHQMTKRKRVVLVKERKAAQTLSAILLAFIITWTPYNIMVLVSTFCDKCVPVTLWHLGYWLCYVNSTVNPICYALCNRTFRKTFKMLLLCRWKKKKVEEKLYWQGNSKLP

M3 (h) = M3 (h) (Homo sapiens, UniProt P20309)
M4 (h) = biological target: T2, M4 (h) (Homo sapiens, UniProt P08173)
T2 sequence (P08173 1-479): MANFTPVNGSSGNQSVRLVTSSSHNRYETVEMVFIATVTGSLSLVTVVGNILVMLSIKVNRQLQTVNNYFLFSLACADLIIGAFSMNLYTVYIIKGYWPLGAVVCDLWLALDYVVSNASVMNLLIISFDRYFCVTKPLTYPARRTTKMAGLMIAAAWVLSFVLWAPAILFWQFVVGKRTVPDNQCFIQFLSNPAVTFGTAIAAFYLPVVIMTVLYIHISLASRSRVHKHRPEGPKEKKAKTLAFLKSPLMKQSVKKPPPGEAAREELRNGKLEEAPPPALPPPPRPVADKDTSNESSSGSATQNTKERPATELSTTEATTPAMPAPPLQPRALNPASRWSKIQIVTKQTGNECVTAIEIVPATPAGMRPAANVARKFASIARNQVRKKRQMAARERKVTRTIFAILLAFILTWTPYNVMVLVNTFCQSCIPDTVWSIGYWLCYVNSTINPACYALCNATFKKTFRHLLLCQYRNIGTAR

NMRI mice = format: in vivo, mouse; settings: 8 mg/kg oral
Protocol: NMRI mice were habituated to their room for at least 2 to 3 weeks after the delivery and kept under standard conditions in groups of 4–5 animals per cage. Food and water were available ad libitum.
The tail suspension test was performed using with a BIOSEB system. In preparation for the experiment, a piece of tape (approx. 15 cm long) was wrapped around the end of the mouse tail approximately 2 mm before the tip. The tape was then attached to a holding device within the measuring unit at a height of approximately 30cm.
Movements of the animals were monitored and automatically evaluated by corresponding software. The duration of immobility during 6 min observation period was recorded. At the end of the experiment plasma samples were taken and the animals were sacrificed via isofluorane inhalation and subsequent decapitation.

GR (h) = biological target: T3, GR (h) (Homo sapiens, UniProt P04150); format: binding
T3 construct: IM-9 cells; host or cells: IM-9 cells (cytosol)

5-HT1B = 5-HT1B (Rattus norvegicus, UniProt P28564)
5-HT4e (h) = 5-HT4e (h) (Homo sapiens, UniProt Q13639)
5-HT6 (h) = 5-HT6 (h) (Homo sapiens, UniProt P50406)
Chain of 5-HT6 (h) (P50406 whole entry): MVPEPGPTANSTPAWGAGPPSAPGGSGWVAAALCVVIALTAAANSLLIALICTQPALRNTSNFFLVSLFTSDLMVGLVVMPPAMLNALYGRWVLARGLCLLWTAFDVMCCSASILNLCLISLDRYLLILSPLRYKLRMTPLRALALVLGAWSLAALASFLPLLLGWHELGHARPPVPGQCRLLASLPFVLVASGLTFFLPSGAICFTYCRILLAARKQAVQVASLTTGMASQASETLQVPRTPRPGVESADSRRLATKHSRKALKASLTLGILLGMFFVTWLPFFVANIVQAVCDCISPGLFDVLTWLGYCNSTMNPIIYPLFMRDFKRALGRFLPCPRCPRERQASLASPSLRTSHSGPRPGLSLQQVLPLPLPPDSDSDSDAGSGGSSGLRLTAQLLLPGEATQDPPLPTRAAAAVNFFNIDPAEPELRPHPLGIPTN

Chain of M3 (h) (P20309 whole entry): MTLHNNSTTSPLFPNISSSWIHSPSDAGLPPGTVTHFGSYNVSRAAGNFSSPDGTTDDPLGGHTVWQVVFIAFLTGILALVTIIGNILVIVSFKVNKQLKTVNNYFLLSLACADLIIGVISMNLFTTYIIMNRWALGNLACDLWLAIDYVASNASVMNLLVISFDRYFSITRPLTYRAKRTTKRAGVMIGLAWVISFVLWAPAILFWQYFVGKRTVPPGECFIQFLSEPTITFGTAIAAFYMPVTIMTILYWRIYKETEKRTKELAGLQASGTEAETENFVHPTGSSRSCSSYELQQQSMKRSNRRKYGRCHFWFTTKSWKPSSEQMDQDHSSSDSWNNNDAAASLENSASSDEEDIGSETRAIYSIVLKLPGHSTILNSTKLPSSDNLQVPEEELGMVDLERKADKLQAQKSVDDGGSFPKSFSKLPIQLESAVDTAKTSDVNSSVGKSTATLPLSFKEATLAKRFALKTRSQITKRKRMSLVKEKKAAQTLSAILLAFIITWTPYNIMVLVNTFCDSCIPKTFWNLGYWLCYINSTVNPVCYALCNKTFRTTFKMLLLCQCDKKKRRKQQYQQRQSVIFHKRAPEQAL
Chain of 5-HT1B (P28564 whole entry): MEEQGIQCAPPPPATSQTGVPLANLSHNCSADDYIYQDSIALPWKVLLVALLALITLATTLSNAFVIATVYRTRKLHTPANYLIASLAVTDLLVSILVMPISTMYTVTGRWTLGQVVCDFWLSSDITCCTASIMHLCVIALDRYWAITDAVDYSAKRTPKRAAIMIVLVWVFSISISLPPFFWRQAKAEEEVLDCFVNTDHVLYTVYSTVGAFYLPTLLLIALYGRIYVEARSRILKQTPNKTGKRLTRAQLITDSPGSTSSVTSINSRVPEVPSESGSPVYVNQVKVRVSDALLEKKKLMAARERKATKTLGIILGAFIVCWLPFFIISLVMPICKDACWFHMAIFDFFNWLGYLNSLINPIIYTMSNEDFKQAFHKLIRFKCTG
Chain of 5-HT4e (h) (Q13639 1-378 isoform Q13639-5): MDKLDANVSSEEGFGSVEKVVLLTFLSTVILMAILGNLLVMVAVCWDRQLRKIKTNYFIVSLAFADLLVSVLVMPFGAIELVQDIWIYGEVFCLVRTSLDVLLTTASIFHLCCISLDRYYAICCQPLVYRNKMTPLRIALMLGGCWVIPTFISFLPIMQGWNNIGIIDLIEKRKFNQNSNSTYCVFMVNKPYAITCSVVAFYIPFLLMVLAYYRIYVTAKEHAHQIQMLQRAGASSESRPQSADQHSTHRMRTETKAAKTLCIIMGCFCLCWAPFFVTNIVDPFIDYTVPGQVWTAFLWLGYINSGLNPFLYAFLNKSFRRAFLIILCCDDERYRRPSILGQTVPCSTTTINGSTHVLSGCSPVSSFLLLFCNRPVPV
T3 sequence (P04150 whole entry): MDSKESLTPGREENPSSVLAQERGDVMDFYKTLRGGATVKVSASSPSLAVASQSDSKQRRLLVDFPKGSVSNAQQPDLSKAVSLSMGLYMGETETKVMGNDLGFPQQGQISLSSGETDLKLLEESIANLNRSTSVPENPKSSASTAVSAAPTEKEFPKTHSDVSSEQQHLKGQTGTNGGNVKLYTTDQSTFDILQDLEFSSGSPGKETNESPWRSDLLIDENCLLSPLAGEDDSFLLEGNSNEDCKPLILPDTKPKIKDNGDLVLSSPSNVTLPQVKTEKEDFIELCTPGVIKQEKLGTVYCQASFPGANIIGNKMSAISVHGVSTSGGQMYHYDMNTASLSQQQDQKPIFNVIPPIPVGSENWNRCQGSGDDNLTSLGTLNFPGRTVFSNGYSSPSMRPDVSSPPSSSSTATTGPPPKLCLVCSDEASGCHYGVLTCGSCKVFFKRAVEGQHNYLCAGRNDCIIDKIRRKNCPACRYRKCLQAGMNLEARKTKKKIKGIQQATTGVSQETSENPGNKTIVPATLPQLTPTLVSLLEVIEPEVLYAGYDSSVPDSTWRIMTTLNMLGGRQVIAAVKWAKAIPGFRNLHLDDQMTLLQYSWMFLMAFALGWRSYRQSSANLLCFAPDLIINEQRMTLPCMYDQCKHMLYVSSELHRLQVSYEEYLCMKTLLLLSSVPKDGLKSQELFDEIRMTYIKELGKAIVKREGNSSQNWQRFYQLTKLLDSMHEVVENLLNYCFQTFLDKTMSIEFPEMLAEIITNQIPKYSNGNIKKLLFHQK

IC50 (M5 (h)): 0.76 nM and 0.45 nM | Ki (M5 (h)): 0.38 nM and 0.22 nM | nH (M5 (h)): 0.8 | nH (M3 (h)): 1.2 | nH (M4 (h)): 0.8
SMILES: C[N+]1(C)CCC(OC(=O)C(c2ccccc2)c2ccccc2)CC1.[I-] [4-DAMP, reference compound]

SMILES: CNCCCN1c2ccccc2CCc2ccccc21 [desipramine, reference compound]
time of immobility (NMRI mice): reduced the time of immobility

SMILES: C[C@@H]1C[C@H]2[C@@H]3CCC4=CC(=O)C=C[C@]4(C)[C@@]3(F)[C@@H](O)C[C@]2(C)[C@@]1(O)C(=O)CO [dexamethasone]
nH (GR (h)): 1.1

nH (5-HT1B): 0.7 | nH (5-HT4e (h)): 0.9 | nH (5-HT6 (h)): 1.0
SMILES: NCCc1c[nH]c2ccc(O)cc12 [serotonin]
